Measurements as given in patent publication US20070071831A1, “Product for the prevention and the treatment of grapevine infections and method of preparation thereof” (Vomm Impianti e Processi S.p.A., priority 2005, published 2007).

Columns and labels:
corky bark = experiment: Vineyard treatment of grapevine plants against corky bark; format: in vivo; details: remaining plants (more than 500) of the same vineyard
Description: Finally, some preliminary experiments have shown that the product of the invention is effective not only against downy mildew infections but also against other plant diseases such as, in particular, corky bark, caused by the phytoplasm transmitted by the vector Scaphoideus titanus Ball, a Deltocefalinae plathopper.
In particular the product has been tested on 70 grapevine plants arranged on five rows in a vineyard wherein the remaining plants (more than 500) have been treated with a conventional synthetic plant protection product (Fenitrothion).

downy mildew = experiment: Vineyard treatment of grapevine plants against downy mildew; format: in vivo, Plasmopara viticola; details: remaining plants of a vineyard of approximately 1000 grapevine plants; same number and times of applications; beginning of March to end of July
Experimental: The product obtained according to example 1 was diluted with water, mixing a part of product with ten parts of water and it was used to treat the grapevine plants.
The product thus diluted was applied by spraying on 70 grapevine plants arranged in 5 rows in a vineyard comprising approximately 1000 grapevine plants. The remaining plants were then treated with a conventional synthetic plant protection product (Metiram).
The treatments were carried out during the period between the beginning of March and the end of July, each time applying a quantity of 100 g of diluted product per plant. The same number of applications as those of the conventional plant protection product were carried out, at the same times.

Row | Compound | plants attacked by corky bark (corky bark) | plants showing obvious signs of downy mildew infestation (downy mildew) [%]
1 | COP(=S)(OC)Oc1ccc([N+](=O)[O-])c(C)c1 [Fenitrothion] | majority | 
2 | Metiram |  | 18
